Literature values, collected in patent US7361646B2, “Methods for treating gastroesophageal reflux disease” (Corcept Therapeutics, Inc., priority 2002, dated 2008).

Columns and labels:
[1] = target: T1, glucocorticoid (GR) receptors (Homo sapiens, UniProt P04150); conditions: result in words
T1 sequence (P04150 1-777): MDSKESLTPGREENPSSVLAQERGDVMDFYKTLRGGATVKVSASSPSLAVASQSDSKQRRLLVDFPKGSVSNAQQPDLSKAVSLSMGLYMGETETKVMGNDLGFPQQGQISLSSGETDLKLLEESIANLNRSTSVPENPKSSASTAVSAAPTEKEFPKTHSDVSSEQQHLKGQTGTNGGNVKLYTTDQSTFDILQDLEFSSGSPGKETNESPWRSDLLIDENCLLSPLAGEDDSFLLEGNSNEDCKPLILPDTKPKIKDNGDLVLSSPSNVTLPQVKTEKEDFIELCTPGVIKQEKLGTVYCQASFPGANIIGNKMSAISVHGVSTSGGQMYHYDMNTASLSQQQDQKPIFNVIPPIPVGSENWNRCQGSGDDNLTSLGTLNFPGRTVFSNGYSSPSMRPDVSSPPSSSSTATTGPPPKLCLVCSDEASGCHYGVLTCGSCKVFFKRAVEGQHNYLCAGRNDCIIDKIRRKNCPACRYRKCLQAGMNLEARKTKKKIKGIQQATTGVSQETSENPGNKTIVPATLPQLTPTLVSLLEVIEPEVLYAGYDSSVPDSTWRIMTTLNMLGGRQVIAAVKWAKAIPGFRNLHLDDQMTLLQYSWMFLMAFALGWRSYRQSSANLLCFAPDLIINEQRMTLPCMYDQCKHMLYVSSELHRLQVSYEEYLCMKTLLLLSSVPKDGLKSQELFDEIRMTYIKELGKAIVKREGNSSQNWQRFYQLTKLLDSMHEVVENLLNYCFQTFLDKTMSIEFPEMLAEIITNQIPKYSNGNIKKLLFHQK

progesterone receptor = target: T2, progesterone receptor (Homo sapiens, UniProt P06401); conditions: result in words
T2 sequence (P06401 1-933): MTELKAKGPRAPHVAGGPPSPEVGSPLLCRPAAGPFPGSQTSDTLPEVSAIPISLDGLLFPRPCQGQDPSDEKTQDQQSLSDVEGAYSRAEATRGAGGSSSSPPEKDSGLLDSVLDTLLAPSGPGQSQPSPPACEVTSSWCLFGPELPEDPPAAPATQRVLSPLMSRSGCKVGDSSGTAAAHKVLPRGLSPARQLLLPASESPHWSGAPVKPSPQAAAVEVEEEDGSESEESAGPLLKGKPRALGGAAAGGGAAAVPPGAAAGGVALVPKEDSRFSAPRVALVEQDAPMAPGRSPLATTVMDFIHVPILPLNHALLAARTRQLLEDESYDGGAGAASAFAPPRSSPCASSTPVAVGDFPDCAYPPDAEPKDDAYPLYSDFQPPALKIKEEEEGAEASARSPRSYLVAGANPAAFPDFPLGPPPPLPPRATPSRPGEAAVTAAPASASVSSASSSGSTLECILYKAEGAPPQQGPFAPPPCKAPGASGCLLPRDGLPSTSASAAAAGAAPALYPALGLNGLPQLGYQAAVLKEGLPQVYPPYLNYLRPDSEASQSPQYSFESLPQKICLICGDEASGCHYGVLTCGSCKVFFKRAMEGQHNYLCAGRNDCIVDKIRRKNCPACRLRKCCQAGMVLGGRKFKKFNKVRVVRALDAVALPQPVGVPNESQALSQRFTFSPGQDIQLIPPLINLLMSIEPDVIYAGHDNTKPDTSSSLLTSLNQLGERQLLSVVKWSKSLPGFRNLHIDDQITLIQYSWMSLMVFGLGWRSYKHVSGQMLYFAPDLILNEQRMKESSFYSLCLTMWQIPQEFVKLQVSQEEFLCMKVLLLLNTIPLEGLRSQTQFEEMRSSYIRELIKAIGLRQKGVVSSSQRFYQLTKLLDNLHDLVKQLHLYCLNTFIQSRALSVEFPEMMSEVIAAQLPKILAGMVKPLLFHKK

[2] = in one study (Kawai)
[3] = target: T3, Mineralocorticoid receptors (MRs) (Homo sapiens, UniProt P08235); conditions: MR versus GR
T3 sequence (P08235 1-984): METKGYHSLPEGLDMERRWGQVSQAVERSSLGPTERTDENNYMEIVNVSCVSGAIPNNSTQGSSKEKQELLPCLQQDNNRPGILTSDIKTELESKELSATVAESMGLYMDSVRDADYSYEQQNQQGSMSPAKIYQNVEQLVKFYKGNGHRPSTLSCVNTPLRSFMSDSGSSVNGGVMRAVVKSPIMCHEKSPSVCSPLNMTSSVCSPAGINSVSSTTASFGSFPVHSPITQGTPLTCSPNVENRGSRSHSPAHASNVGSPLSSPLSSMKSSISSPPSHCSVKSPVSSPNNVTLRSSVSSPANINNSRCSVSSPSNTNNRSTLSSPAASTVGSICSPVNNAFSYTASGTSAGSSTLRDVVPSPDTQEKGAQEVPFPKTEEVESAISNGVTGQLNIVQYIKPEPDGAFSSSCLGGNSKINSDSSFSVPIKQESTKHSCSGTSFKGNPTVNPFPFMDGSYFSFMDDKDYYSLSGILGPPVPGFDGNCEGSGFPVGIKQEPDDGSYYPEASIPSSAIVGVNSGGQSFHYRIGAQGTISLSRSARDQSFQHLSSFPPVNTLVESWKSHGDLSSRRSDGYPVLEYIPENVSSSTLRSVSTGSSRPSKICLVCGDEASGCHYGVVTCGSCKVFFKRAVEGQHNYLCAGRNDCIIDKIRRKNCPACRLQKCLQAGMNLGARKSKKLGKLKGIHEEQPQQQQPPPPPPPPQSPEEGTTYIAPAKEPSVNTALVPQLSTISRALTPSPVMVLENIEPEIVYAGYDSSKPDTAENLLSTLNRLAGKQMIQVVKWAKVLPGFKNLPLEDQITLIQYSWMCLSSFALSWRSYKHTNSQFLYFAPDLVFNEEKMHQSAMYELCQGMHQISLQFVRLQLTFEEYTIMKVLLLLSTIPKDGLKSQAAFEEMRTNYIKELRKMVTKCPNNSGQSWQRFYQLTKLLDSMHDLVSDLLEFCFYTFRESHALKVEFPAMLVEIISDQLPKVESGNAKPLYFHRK

Compound	GR antagonist effect [1]	progesterone receptor antagonist effect (progesterone receptor)	share of the daily dose excreted in the urine [2]	affinity of MRs for cortisol relative to GRs for glucocorticoids [3]
CC#C[C@]1(O)CC[C@H]2[C@@H]3CCC4=CC(=O)CCC4=C3[C@@H](c3ccc(OCCN(C)C)cc3)C[C@@]21C [RU009, 11β-(4-dimethylaminoethoxyphenyl)-17α-propynyl-17β-hydroxy-4,9-estradien-3-one]	shown to have GR antagonist effects	–	–	–
CC#C[C@]1(O)CC[C@H]2[C@@H]3CCC4=CC(=O)CCC4=C3[C@@H](c3ccc(N(C)C)cc3)C[C@@]21C [Mifepristone, (11β,17β) 11[4(dimethylamino)phenyl]-17hydroxy-17(1 propynyl)estra-4,9dien-3one]	powerful antagonist	powerful antagonist	less than 0.5 % of the daily dose	–
C[C@]12CCC(=O)C=C1CC[C@@H]1[C@@H]2[C@@H](O)C[C@@]2(C)[C@H]1CC[C@]2(O)C(=O)CO [cortisol]	–	–	–	ten-fold higher affinity
